Assay results: patent US20240109853A1 (Shanghai Yao Yuan Biotechnology Co., Ltd., priority 2020, published 2024)
Counter-ions that a name gives are not always drawn.

How the values were obtained:
ALPK1 = ALPK1 (Homo sapiens (Human), UniProt Q96QP1); test: ALPK1 in vitro kinase assay (HTRF of TIFA phosphorylation); type: biochemical
[1] = tested on: ALPK1-dependent NFκB reporter gene activation in HEK293 cells stably expressing an NF-kB reporter (G9 cells); test: NFκB gene reporter alkaline phosphatase assay; type: cell-based; details: Homo sapiens, HEK293; read-out: NFkB assay IC50
Summary of the method: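 HEK293 G9 cells carrying an NF-κB-driven alkaline phosphatase reporter, pretreated 30 min with serially diluted compound, then stimulated with D-glycero-D-manno-6-fluoro-heptose-1β-S-ADP. Reporter activity read with chromogenic pNPP substrate; IC50 from four-parameter logistic fit.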

ALPK1, sequence (Q96QP1 whole entry): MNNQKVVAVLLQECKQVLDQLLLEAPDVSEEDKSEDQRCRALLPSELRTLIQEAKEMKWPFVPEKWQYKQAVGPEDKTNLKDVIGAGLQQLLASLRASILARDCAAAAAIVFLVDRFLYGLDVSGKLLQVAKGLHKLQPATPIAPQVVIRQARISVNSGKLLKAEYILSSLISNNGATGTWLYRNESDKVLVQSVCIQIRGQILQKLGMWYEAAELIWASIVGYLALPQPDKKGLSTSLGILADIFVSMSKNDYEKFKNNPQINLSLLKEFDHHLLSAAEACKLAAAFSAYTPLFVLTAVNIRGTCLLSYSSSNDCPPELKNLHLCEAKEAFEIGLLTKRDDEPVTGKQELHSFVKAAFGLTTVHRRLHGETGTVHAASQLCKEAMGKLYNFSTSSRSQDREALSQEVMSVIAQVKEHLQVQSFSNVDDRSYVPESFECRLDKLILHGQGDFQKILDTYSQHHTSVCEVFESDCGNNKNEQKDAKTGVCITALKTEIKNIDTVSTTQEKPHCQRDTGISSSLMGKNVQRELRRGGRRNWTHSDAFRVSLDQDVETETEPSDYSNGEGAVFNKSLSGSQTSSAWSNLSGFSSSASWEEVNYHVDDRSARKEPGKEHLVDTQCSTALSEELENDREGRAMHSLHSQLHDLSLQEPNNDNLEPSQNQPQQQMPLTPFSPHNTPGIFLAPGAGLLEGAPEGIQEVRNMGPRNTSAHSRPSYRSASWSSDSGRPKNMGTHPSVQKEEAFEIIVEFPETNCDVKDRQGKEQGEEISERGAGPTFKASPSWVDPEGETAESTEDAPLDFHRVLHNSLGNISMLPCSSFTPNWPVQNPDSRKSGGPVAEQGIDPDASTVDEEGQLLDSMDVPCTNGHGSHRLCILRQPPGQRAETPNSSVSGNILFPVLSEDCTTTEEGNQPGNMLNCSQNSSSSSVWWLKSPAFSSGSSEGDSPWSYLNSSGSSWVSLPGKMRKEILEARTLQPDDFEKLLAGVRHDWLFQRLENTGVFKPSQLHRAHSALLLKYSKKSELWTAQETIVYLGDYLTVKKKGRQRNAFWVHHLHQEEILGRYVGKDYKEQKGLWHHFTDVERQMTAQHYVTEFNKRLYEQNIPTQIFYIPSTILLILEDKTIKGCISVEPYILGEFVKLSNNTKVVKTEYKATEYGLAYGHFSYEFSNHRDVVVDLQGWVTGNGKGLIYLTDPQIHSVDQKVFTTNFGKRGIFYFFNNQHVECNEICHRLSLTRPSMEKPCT

SMILES | IC50 (ALPK1) | IC50 [1]
COc1ccc(C(C)(C)c2csc(NC(=O)NC(C)c3ccc(N4CCNCC4)nc3)n2)cc1 (stereo not shown) [Example A001, 1-(4-(2-(4-methoxyphenyl)propan-2-yl)thiazol-2-yl)-3-(1-(6-(piperazin-1-yl)pyridin-3-yl)ethyl)urea] | 58 nM | 670 nM
CC(C)(c1ccc(Br)cc1)c1csc(NC(=O)NCCCN2CCNCC2)n1 [Example A102, 1-(4-(2-(4-bromophenyl)propan-2-yl)thiazol-2-yl)-3-(3-(piperazin-1-yl)propyl)urea] | 90 nM | 710 nM
CN(C)C1CCN(c2ccc(CNC(=O)Nc3nc(C(C)(C)c4ccc(Br)cc4)cs3)cn2)C1 (stereo not shown) [Example A106, 1-(4-(2-(4-bromophenyl)propan-2-yl)thiazol-2-yl)-3-((6-(3-(dimethylamino)pyrrolidin-1-yl)pyridin-3-yl)methyl)urea] | 48 nM | 6720 nM
C#CC(C)(c1ccc(Cl)cc1)c1csc(NC(=O)N2CCC(O)C2)n1 (stereo not shown) [Example A269, N-(4-(2-(4-chlorophenyl)but-3-yn-2-yl)thiazol-2-yl)-3-hydroxypyrrolidine-1-carboxamide] | 881 nM | 1260 nM
CC(C)(c1ccc(Br)cc1)c1csc(NC(=O)NCc2ccc(N3CCC(CN)CC3)cc2)n1 [Example A211, 1-(4-(4-(aminomethyl)piperidin-1-yl)benzyl)-3-(4-(2-(4-bromophenyl)propan-2-yl)thiazol-2-yl)urea] | 94 nM | 2590 nM
CC(NC(=O)Nc1nc(C(C)(C)c2ccc(Br)cc2)cs1)c1cc(F)c(N2CCNCC2)c(F)c1 (stereo not shown) [Example A003, 1-(4-(2-(4-bromophenyl)propan-2-yl)thiazol-2-yl)-3-(1-(3,5-difluoro-4-(piperazin-1-yl)phenyl)ethyl)urea] | 45 nM | 1200 nM
COc1ccc(C(C)(C)c2csc(NC(=O)NO)n2)cc1 [Example A144, 1-hydroxy-3-(4-(2-(4-methoxyphenyl)propan-2-yl)thiazol-2-yl)urea] | 154 nM | 1750 nM
CC(C)(c1ccc(Br)cc1)c1csc(NC(=O)NCc2ccc(N3CCC(N)C3)nc2)n1 (stereo not shown) [Example A189, 1-((6-(3-aminopyrrolidin-1-yl)pyridin-3-yl)methyl)-3-(4-(2-(4-bromophenyl)propan-2-yl)thiazol-2-yl)urea] | 41 nM | 2310 nM
C#C[C@](C)(c1ccc(Cl)cc1)c1csc(NC(=O)NC(CO)CO)n1 (stereo in doubt) [Example A297, 1-(4-(2-(4-chlorophenyl)but-3-yn-2-yl)thiazol-2-yl)-3-(1,3-dihydroxypropan-2-yl)urea] | 935 nM | 4390 nM
CC(C)(c1ccc(Cl)c(F)c1)c1csc(NC(=O)NCc2ccc(N3CCNCC3)cc2)n1 [Example A031, 1-(4-(2-(4-chloro-3-fluorophenyl)propan-2-yl)thiazol-2-yl)-3-(4-(piperazin-1-yl)benzyl)urea] | 345 nM | 1450 nM
COc1ccc(C(C)(C)c2csc(NC(=O)NCc3cc(F)c(N4CCNCC4)cc3F)n2)cc1 [Example A231, 1-(2,5-difluoro-4-(piperazin-1-yl)benzyl)-3-(4-(2-(4-methoxyphenyl)propan-2-yl)thiazol-2-yl)urea hydrochloride] | 27 nM | 3360 nM
CC(C)(c1ccc(Br)cc1)c1csc(NC(=O)NCc2ccc(N3CCNCC3)cc2Cl)n1 [Example A048, 1-(4-(2-(4-bromophenyl)propan-2-yl)thiazol-2-yl)-3-(2-chloro-4-(piperazin-1-yl)benzyl)urea] | 138 nM | 1530 nM
CC(C)(c1ccc(F)cc1)c1csc(NC(=O)NCc2cnc(N3CCNCC3)nc2)n1 [Example A085, 1-(4-(2-(4-fluorophenyl)propan-2-yl)thiazol-2-yl)-3-((2-(piperazin-1-yl)pyrimidin-5-yl)methyl)urea] | 85 nM | 490 nM
C#CC(C)(c1ccc(Cl)cc1)c1csc(NC(=O)NC2CCN(Cc3ccc(C)cc3)C2)n1 (stereo not shown) [Example A309, 1-(4-(2-(4-chlorophenyl)but-3-yn-2-yl)thiazol-2-yl)-3-(1-(4-methylbenzyl)pyrrolidin-3-yl)urea] | 1410 nM | 4120 nM
COc1ccc(C(C)(C)c2csc(NC(=O)NCCN3CCC(N)C3)n2)cc1 (stereo not shown) [Example A227, 1-(2-(3-aminopyrrolidin-1-yl)ethyl)-3-(4-(2-(4-methoxyphenyl)propan-2-yl)thiazol-2-yl)urea] | 138 nM | 3120 nM
COc1ccc(C(C)(C)c2csc(NC(=O)NCCS(N)(=O)=O)n2)cc1 [Example A137, 2-(3-(4-(2-(4-methoxyphenyl)propan-2-yl)thiazol-2-yl)ureido)ethanesulfona-mide] | 42 nM | 1960 nM
COc1ccc(C(C)(C)c2csc(NC(=O)NCCCN3CCOCC3)n2)cc1 [Example A134, 1-(4-(2-(4-methoxyphenyl)propan-2-yl)thiazol-2-yl)-3-(3-morpholinopropyl)urea] | 152 nM | 5110 nM
COc1ccc(C(C)(C)c2csc(NC(=O)NC3CCCC(O)C3)n2)cc1 (stereo not shown) [Example A123, 1-(3-hydroxycyclohexyl)-3-(4-(2-(4-methoxyphenyl)propan-2-yl)thiazol-2-yl)urea] | 354 nM | 2400 nM

SMILES | IC50 (ALPK1) | IC50 [1]
COc1ccc(C(C)(C)c2csc(NC(=O)N3CC(c4ccc(N5CCNCC5)cc4)C3)n2)cc1 [Example A233, N-(4-(2-(4-methoxyphenyl)propan-2-yl)thiazol-2-yl)-3-(4-(piperazin-1-yl)phenyl)azetidine-1-carboxamide] | 43 nM | 330 nM
COc1ccc(C(C)(C)c2csc(NC(=O)NCc3ccc(C(=O)NCCN)nc3)n2)cc1 [Example A203, N-(2-aminoethyl)-5-((3-(4-(2-(4-methoxyphenyl)propan-2-yl)thiazol-2-yl)ureido)methyl)picolin-amide] | 94 nM | 5700 nM
CC(O)(c1ccc(Br)cc1)c1csc(NC(=O)NCc2ccc(N3CCNCC3)c(F)c2)n1 (stereo not shown) [Example A056, 1-(4-(1-(4-bromophenyl)-1-hydroxyethyl)thiazol-2-yl)-3-(3-fluoro-4-(piperazin-1-yl)benzyl)urea] | 176 nM | 1060 nM
CC(C)(c1ccc(Br)cc1)c1csc(NC(=O)NCCCS(C)(=O)=O)n1 [Example A130, 1-(4-(2-(4-bromophenyl)propan-2-yl)thiazol-2-yl)-3-(3-(methylsulfonyl)propyl) urea] | 293 nM | 1100 nM
CCC(C)(c1ccc(Br)cc1)c1csc(NC(=O)NCc2ccc(N3CCNCC3)cc2)n1 (stereo not shown) [Example A039, 1-(4-(2-(4-bromophenyl)butan-2-yl)thiazol-2-yl)-3-(4-(piperazin-1-yl)benzyl)urea] | 189 nM | 711 nM
C#C[C@@](C)(c1ccc(OC)cc1)c1csc(NC(N)=O)n1 [Example A173, (S)-1-(4-(2-(4-methoxyphenyl)but-3-yn-2-yl)thiazol-2-yl)urea] | 8 nM | 580 nM
COc1ccc(C(C)(C)c2csc(NC(=O)NCc3cnc(N4CCC(O)C4)nc3)n2)cc1 (stereo not shown) [Example A083, 1-((2-(3-hydroxypyrrolidin-1-yl)pyrimidin-5-yl)methyl)-3-(4-(2-(4-methoxyphenyl)propan-2-yl)thiazol-2-yl)urea] | 111 nM | 680 nM
CC(C)(c1ccc(Br)cc1)c1csc(NC(=O)NCCS(N)(=O)=O)n1 [Example A131, 2-(3-(4-(2-(4-bromophenyl)propan-2-yl)thiazol-2-yl)ureido)ethanesulfona-mide] | 219 nM | 940 nM
CN1CCC(NC(=O)C2CCC(CNC(=O)Nc3nc(C(C)(C)c4ccc(Br)cc4)cs3)CC2)CC1 (stereo not shown) [Example A100, 4-((3-(4-(2-(4-bromophenyl)propan-2-yl)thiazol-2-yl)ureido)methyl)-N-(1-methylpiperidin-4-yl)cyclohexane-1-carboxamide] | 72 nM | 1370 nM
COc1ccc(C(C)(C)c2csc(NC(=O)NCc3ccc(N4CCNCC4)cc3)n2)cc1 [Example A053, 1-(4-(2-(4-methoxyphenyl)propan-2-yl)thiazol-2-yl)-3-(4-(piperazin-1-yl)benzyl)urea] | 43 nM | 760 nM
CC(C)(c1ccc(Br)cc1)c1csc(NC(=O)NCc2ccc(CN3CCNCC3)cc2)n1 [Example A026, 1-(4-(2-(4-bromophenyl)propan-2-yl)thiazol-2-yl)-3-(4-(piperazin-1-ylmethyl)benzyl)urea] | 117 nM | 1250 nM
CC(C)(c1ccc(Br)cc1)c1csc(NC(=O)NCc2ccc(CN3CCNCC3)c(F)c2)n1 [Example A214, 1-(4-(2-(4-bromophenyl)propan-2-yl)thiazol-2-yl)-3-(3-fluoro-4-(piperazin-1-ylmethyl)benzyl)urea] | 40 nM | 1560 nM
COc1ccc(C(C)(C)c2csc(NC(=O)NCCCN3CCC(O)C3)n2)cc1 (stereo not shown) [Example A135, 1-(3-(3-hydroxypyrrolidin-1-yl)propyl)-3-(4-(2-(4-methoxyphenyl)propan-2-yl)thiazol-2-yl)urea] | 112 nM | 1240 nM
CCNC(=O)Nc1nc(C(C)(C)c2ccc(OC)cc2)cs1 [Example A242, 1-ethyl-3-(4-(2-(4-methoxyphenyl)propan-2-yl)thiazol-2-yl)urea] | 42 nM | 980 nM
C#C[C@](C)(c1ccc(Cl)cc1)c1csc(NC(=O)NC2(CO)CC2)n1 [Example A296] | 114 nM | 4790 nM
COc1cc(CNC(=O)Nc2nc(C(C)(C)c3ccc(Br)cc3)cs2)ccc1N1CCNCC1 [Example A220, 1-(4-(2-(4-bromophenyl)propan-2-yl)thiazol-2-yl)-3-(3-methoxy-4-(piperazin-1-yl)benzyl)urea] | 44 nM | 1320 nM
COc1ccc(C(C)(C)c2csc(NC(=O)NCCCCO)n2)cc1 [Example A128, 1-(4-hydroxybutyl)-3-(4-(2-(4-methoxyphenyl)propan-2-yl)thiazol-2-yl)urea] | 146 nM | 530 nM
